{
  "source": "patent US20250120929A1",
  "about": "“METHOD OF TREATING VIRUS-ASSOCIATED INFECTION USING ACETAMINOPHEN” (Sanbiozi Medical Science Inc., priority 2023, published 2025)",
  "key": {"PRRS virus (PRRSV2) [1]": {"test_system": "PRRS virus (PRRSV2)", "assay": "In vivo test of acetaminophen against PRRS-infected piglet", "settings": "80 mL acetaminophen therapy three times orally", "from_the_text": "(§1) In this embodiment, the weaned piglets were selected according to their PRRS syndromes. The three piglets were randomly selected in accordance with the professional experience on the syndromes of PRRS and the […] principles of animal test were followed as well. Three infected piglets were proceeded for preliminary test of the effectiveness of antiviral drugs of PRRS.\n(§2) Three infected piglets raised in an isolated pen of the same pig house. Eighty milliliter acetaminophen therapy was given three times orally. Their blood samples were test weekly. Unfortunately, piglet 1 was unable to make over the first week. The other 2 piglets were able make over the process."}, "PRRS virus (PRRSV2) [2]": {"test_system": "PRRS virus (PRRSV2)", "assay": "In vivo test of acetaminophen against PRRS-infected piglet", "design": "key: −: Negative; ±: Virus was detected at very low concentrations", "from_the_text": "as §1, §2"}, "MHV-A59": {"test_system": "MHV-A59", "assay": "In vivo test of acetaminophen against MHV-infected mice", "design": "species or system C57BL/6 mice", "settings": "0.25 mg/mL acetaminophen solution daily via oral gavage, MHV-A59 5×10^6 PFU/mouse i.p.", "from_the_text": "The present invention utilized the Mouse Hepatitis Virus (MHV) and swine virus PRRS as the infectious agents to evaluate the effectiveness of acetaminophen in vivo. We aimed to perform mouse and piglet survival experiments to completely assess acetaminophen against virus infection as a preclinical evaluation.\nIntraperitoneal administration of MHV-A59 with high titer (5×10^6 PFU/mouse) on C57BL/6 mice to cause a high mortality rate. The MHV-infected mice were grouped as follows: 1. PBS vehicle control; 2. 0.25 mg/mL of acetaminophen solution treatment groups followed by treating acetaminophen daily via oral gavage. The viral administration cause loss of body weights on mice. […] These animal data strongly argue the potential application of acetaminophen in developing to an antiviral agent."}, "Mv1Lu cells": {"test_system": "Mv1Lu cells", "assay": "In vitro test for cytotoxicity of acetaminophen", "assay_type": "cell-based, mink", "settings": "five days of incubation; concentration as high as 1000 μg/mL", "experimental": "Specifically, mink lung epithelial cells, Mv1Lu, were treated with acetaminophen."}, "PRRS virus (PRRSV2) [3]": {"test_system": "PRRS virus (PRRSV2)", "assay": "In vivo test of acetaminophen against PRRS-infected piglet", "design": "unit not given here", "from_the_text": "as §1, §2"}},
  "data": [
    {"smiles": "CC(=O)Nc1ccc(O)cc1", "note": "[acetaminophen]", "values": [
      {"measurement": "virus concentration in the body", "setting": "PRRS virus (PRRSV2) [1]; piglets 2 and 3", "result": "decreased"},
      {"measurement": "survival of PRRS-infected piglets", "setting": "PRRS virus (PRRSV2) [1]; three infected piglets", "result": "piglets 2 and piglet 3 survived"},
      {"measurement": "Concentration of PRRSV2 by RT-PCR", "setting": "PRRS virus (PRRSV2) [2]; Piglet 2, test 1 (weekly blood sample), weekly blood test 1", "result": "−"},
      {"measurement": "Concentration of PRRSV2 by RT-PCR", "setting": "PRRS virus (PRRSV2) [2]; Piglet 2, test 3 (weekly blood sample), weekly blood test 3", "result": "−"},
      {"measurement": "Concentration of PRRSV2 by RT-PCR", "setting": "PRRS virus (PRRSV2) [2]; Piglet 3, test 2 (weekly blood sample), weekly blood test 2", "result": "±"},
      {"measurement": "body weight of MHV-infected mice", "setting": "MHV-A59; compared to MHV-only mice", "result": "significantly retained the mouse weights"},
      {"measurement": "survival rate (printed as mortality rate) of MHV-infected mice", "setting": "MHV-A59; virus vehicle control 100% death rate", "result": 50, "unit": "%"},
      {"measurement": "cytotoxicity on Mv1Lu cells", "setting": "Mv1Lu cells", "result": "no significant cytotoxicity"},
      {"measurement": "Concentration of PRRSV2 by RT-PCR", "setting": "PRRS virus (PRRSV2) [3]; Piglet 1, test 1 (weekly blood sample)", "result": "7.7 × 10 ^5"},
      {"measurement": "Concentration of PRRSV2 by RT-PCR", "setting": "PRRS virus (PRRSV2) [3]; Piglet 2, test 2 (weekly blood sample), weekly blood test 2", "result": "1.3 × 10^3"},
      {"measurement": "Concentration of PRRSV2 by RT-PCR", "setting": "PRRS virus (PRRSV2) [3]; Piglet 3, test 1 (weekly blood sample), weekly blood test 1", "result": "8.2 × 10 ^4"},
      {"measurement": "Concentration of PRRSV2 by RT-PCR", "setting": "PRRS virus (PRRSV2) [3]; Piglet 3, test 3 (weekly blood sample), weekly blood test 3", "result": "2.9 × 10 ^2"}
    ]}
  ]
}
